From patent publication US10286084B2, “Compositions for the inactivation of virus replication and methods of making and using the same” (priority 2014, dated 2019)
Structures can show the parent of a compound that is named as a salt. Where two headings read alike, the source gives them in different places.

Experiments:
Format in all cases: cell-based
[1] = test system: HBV; experiment: HBV DNA release into supernatant of transduced HBV2.2.15 cells, with or without antivirals; settings: compound 1 μM, relative to untreated N.S. sgRNA cells, average ± SD; for inhibition at 1 µM: Hepatitis B virus
Protocol: HepAD38 or HBV2.2.15 cells were transduced with lentiviral vectors expressing a puromycin resistance gene as well as Spy Cas9 and an sgRNA, as described above, at 85-90% confluency after growth in medium lacking Tet for 48 h, to ensure expression of HBV mRNAs and DNA. Beginning at 48 h post-transduction, cells were selected in 4 μg/ml puromycin (Life Technologies) for 10 days to eliminate any non-transduced cells. Supernatant media and cells were then harvested for ELISA and real-time PCR assays. Control cells including non-transduced HepAD38 cells were included as positive controls for HBV replication (in medium lacking Tet) or virtual absence of HBV replication (in medium containing Tet). Non-transduced HBV 2.2.15 cells were included as a control in experiments where relevant.
On day 7, total DNA was purified from supernatant using a commercially available kit (DNeasy Blood & Tissue kit, Qiagen). The HBV DNA was amplified in a real-time PCR assay using the AB 7900HT sequence detection system (Applied Biosystems) or the LightCycler 480 (Roche) as described by Stuyver et al. (2002). All samples were tested in duplicate. The concentration of compound that inhibited HBV DNA replication by 50% (EC50) or 90% (EC90) was determined by linear regression. HBV log viral reduction was also determined.
After transduction with Cas9/sgRNA expressing lentiviral constructs and selection, we observed that extracellular levels of HBV DNA were suppressed by ˜98%, ˜80%, and ˜90%, respectively, by the RT, surface Ag, and core specific Cas9/sgRNA combinations (Table 1).

[2] = test system: HPV-18 E6 or E7 gene target; experiment: FLuc indicator assay in 293T cells, Spy Cas9 sgRNAs expressed from U6 or tRNA promoters; settings: Spy Cas9, 72 h, promoter driving the sgRNA varied
Text: (§1) Human tRNA sequences were obtained from the Genomic tRNA database and the MHV tRNA-7 sequence was obtained from Bogerd et al. 2010. (Mol. Cell 37, p135-142, 2010). To generate a tRNA-sgRNA expression construct, overlapping oligonucleotides were assembled to create a tRNA fused to an sgRNA scaffold and a pol III termination signal. Between the tRNA and the sgRNA scaffold, two BsmBI or BbsI sites were incorporated to allow for the insertion of variable targeting sequences. tRNA-sgRNA cassettes were then cloned into Cas9 expression vectors pCMVSau (discussed more fully below), pCMVNme, or pX330 (Addgene, plasmid #42230) expressing S. aureus, N. meningitidis, or S. pyogenes Cas9, respectively. In the case of pX330 the U6 promoter was exchanged for the tRNA-sgRNA cassette.
(§2) Reporter assays with 293T cells were performed by using the calcium phosphate transfection method. Briefly, 293T cells were plated at ˜1.25×10^5 cells per well in 12-well plates and transfected with a 4:1 ratio of the RGN expression plasmid to the FLuc-based indicator plasmid as well as 10 ng of a RLuc plasmid. Transfected 293T cells were then harvested 72 hours post transfection in Passive Lysis Buffer (Promega) and assayed for both FLuc and RLuc activity (Promega Dual-Luciferase Reporter Assay System) with RLuc serving as an internal control and normalization factor.
Initially we generated predicted fusion transcripts consisting of a human glutamine tRNA (SEQ ID NO: 41), a human histidine tRNA (SEQ ID NO: 44) or an MHV68 tRNA (M1-7; SEQ ID NO: 50)) linked to Spy Cas9 sgRNAs specific for a target DNA sequence derived either from the human papillomavirus serotype 18 (HPV-18) E6 or E7 gene (SEQ ID NO: 8 and 10, respectively), as described above. Indicator plasmids consisting of these viral target sequences linked to the FLuc gene, constructed as described above, were then co-transfected into 293T cells along with a plasmid encoding Spy Cas9, plasmids encoding each of the tRNA promoters, or the U6 promoter, linked to the same sgRNA and finally a RLuc-based internal control plasmid. Cells were harvested at 72 h post-transfection and FLuc and RLuc levels determined.

[3] = test system: HSV-1 ICP0 gene; experiment: FLuc indicator assay in 293T cells, Sau Cas9 sgRNA expressed from various tRNAs; settings: Sau Cas9, identical HSV-1 ICP0 sgRNA (SEQ ID NO: 16), tRNA promoter varied
Text: as §1, §2
As such Sau encodes a promising Cas9 gene for potential use in AAV vectors. To analyze whether we could also produce active Sau sgRNAs using tRNA promoters, we expressed the identical Sau sgRNA, specific for a target within the HSV-1 ICP0 gene (SEQ ID NO: 16), using a wide range of human tRNAs. […] The reason for the lower efficiency of processing seen with all of these tRNA:sgRNA fusions is currently unclear, but could relate to the single invariant sgRNA sequence used in this experiment.

[4] = HBV2.2.15 cells expressing Cas9 and HBV RT sgRNA, read-out: Percent inhibition of HBV DNA release into the supernatant medium, HBV RT sgRNA
[5] = HBV2.2.15 cells expressing Cas9 and HBV core sgRNA, read-out: Percent inhibition of HBV DNA release into the supernatant medium, HBV core sgRNA
[6] = HBV2.2.15 cells expressing Cas9 and HBV surface sgRNA, read-out: Percent inhibition of HBV DNA release into the supernatant medium, HBV surface sgRNA
[7] = HBV2.2.15 cells expressing Cas9 and N.S. sgRNA, triplicate, read-out: Percent inhibition of HBV DNA release into the supernatant medium, N.S. sgRNA

Nc1ccn([C@@H]2CS[C@H](CO)O2)c(=O)n1 [3TC, lamivudine]
inhibition at 1 µM [1, 4]: 99.1 ± 0.03% | inhibition at 1 µM [1, 5]: 97.1 ± 0.5% | inhibition at 1 µM [1, 6]: 96.3 ± 0.1% | inhibition at 1 µM [1, 7]: 61.4 ± 6.2%

C=C1[C@H](CO)[C@@H](O)C[C@@H]1n1cnc2c(=O)[nH]c(N)nc21 [ETV, entecavir]
inhibition at 1 µM [1, 4]: 98.5 ± 1% | inhibition at 1 µM [1, 5]: 97.9 ± 0.6% | inhibition at 1 µM [1, 6]: 97.6 ± 1.1% | inhibition at 1 µM [1, 7]: 78.3 ± 7.9%

CC(C)OC(=O)OCOP(=O)(CO[C@H](C)Cn1cnc2c(N)ncnc21)OCOC(=O)OC(C)C [TDF, tenofovir disoproxil fumarate]
inhibition at 1 µM [1, 4]: 98.9 ± 0.2% | inhibition at 1 µM [1, 5]: 97 ± 0.3% | inhibition at 1 µM [1, 6]: 95.9 ± 0.7% | inhibition at 1 µM [1, 7]: 68.1 ± 1.5%

COC(=O)C1=C(CN2CCOCC2)NC(c2ccccn2)=NC1c1ccc(F)cc1Cl (stereo not shown) [HAP12, heteroaryldihydropyrimidine]
Percent inhibition of HBV DNA release into the supernatant medium, HBV RT sgRNA ([1]; HBV2.2.15 cells expressing Cas9 and HBV RT sgRNA): 97.5 ± 0.7% | Percent inhibition of HBV DNA release into the supernatant medium, HBV core sgRNA ([1]; HBV2.2.15 cells expressing Cas9 and HBV core sgRNA): 97.6 ± 0.1% | Percent inhibition of HBV DNA release into the supernatant medium, HBV surface sgRNA ([1]; HBV2.2.15 cells expressing Cas9 and HBV surface sgRNA): 98.0 ± 0.3% | Percent inhibition of HBV DNA release into the supernatant medium, N.S. sgRNA ([1]; HBV2.2.15 cells expressing Cas9 and N.S. sgRNA, triplicate): 77.5 ± 5.2%

B1: tRNAGLN: human glutamine tRNA promoter (SEQ ID NO: 41) fused to sgRNA (nucleic acid)
DNA: GGTTCCATGGTGTAATGGTTAGCACTCTGGACTCTGAATCCAGCGATCCGAGTTCAAATCTCGGTGGAACCT
modifications: expressed or natural sequence
knockdown of E6- and E7-based FLuc indicator constructs [2]: effective and comparable knockdown | knockdown of FLuc indicator [3]: strong knockdown

B2: tRNAGLN2: human tRNA promoter, SEQ ID NO: 45, fused to sgRNA (nucleic acid)
DNA: B1 DNA
modifications: expressed or natural sequence
knockdown of FLuc indicator [3]: strong knockdown

B3: tRNAHIS: human histidine tRNA promoter (SEQ ID NO: 44) fused to sgRNA (nucleic acid)
DNA: GCCGTGATCGTATAGTGGTTAGTACTCTGCGTTGTGGCCGCAGCAACCTCGGTTCGAATCCGAGTCACGGCA
modifications: expressed or natural sequence
knockdown of E6- and E7-based FLuc indicator constructs [2]: slightly less effective

B4: tRNAGLU: human tRNA promoter, SEQ ID NO: 46, fused to sgRNA (nucleic acid)
DNA: TCCCTGGTGGTCTAGTGGTTAGGATTCGGCGCTCTCACCGCCGCGGCCCGGGTTCGATTCCCGGTCAGGGAA
modifications: expressed or natural sequence
knockdown of FLuc indicator [3]: strong knockdown

B5: tRNACYS: human tRNA promoter, SEQ ID NO: 48, fused to sgRNA (nucleic acid)
DNA: GGGGGTATAGCTCAGGGGTAGAGCATTTGACTGCAGATCAAGAGGTCCCCAGTTCAAATCTGGGTGCCCCCT
modifications: expressed or natural sequence
knockdown of FLuc indicator [3]: readily detectable knockdown

B6: tRNAMHV-7: MHV68 tRNA promoter (SEQ ID NO: 50) fused to sgRNA (nucleic acid)
DNA: GCCAGGGTAGCTCAATTGGTAGAGCATCAGGCTAGTATCCTGTCGGTTCCGGTTCAAGTCCGGGCCCTGGTT
modifications: expressed or natural sequence
knockdown of E6- and E7-based FLuc indicator constructs [2]: effective and comparable knockdown

B7: U6 promoter: U6 pol III promoter, ~254 bp, SEQ ID NO: 51, driving sgRNA transcription (nucleic acid)
DNA: TCTAGAGAGGGCCTATTTCCCATGATTCCTTCATATTTGCATATACGATACAAGGCTGTTAGAGAGATAATTGGAATTAATTTGACTGTAAACACAAAGATATTAGTACAAAATACGTGACGTAGAAAGTAATAATTTCTTGGGTAGTTTGCAGTTTTAAAATTATGTTTTAAAATGGACTATCATATGCTTACCGTAACTTGAAAGTATTTCGATTTCTTGGCTTTATATATCTTGTGGAAAGGACGAAACACC
modifications: Synthetic U6 Promoter
knockdown of E6- and E7-based FLuc indicator constructs [2]: effective and comparable knockdown

B8: tRNATYR: human tRNA promoter, SEQ ID NO: 49, fused to sgRNA (nucleic acid)
DNA: GTCAGTGTTGCACAACGGTTAAGTGAAGAGGCTGTAAACCCAGACTGGATGGGTTCAATTCCCATCTCTGCCG
modifications: expressed or natural sequence
knockdown of FLuc indicator [3]: little or no detectable knockdown
